Test results published in publication PMC10812557, “Progressive Design of a Ranatuerin-2 Peptide from Amolops wuyiensis: Enhancement of Bioactivity and In Vivo Efficacy” (Antibiotics, 2023).
Like-named read-outs stand apart in the source and are kept apart here. Peptide text beside a SMILES is read from it.

Tests used:
E. faecium (NTCC 12697) [1] = test: microbe, parasite or virus in culture; assay type: cell-based; conditions: NTCC 12697, 18 h
Excerpt: (§1) The MIC and MBC assays were used to assess the inhibitory activities of all 5 analogues of R2AW on the growth of planktonic microorganisms. The MIC is the lowest concentration that prevents the viable growth of bacteria. The MBC is the lowest concentration that results in bacterial death. Six microorganisms were used to detect the antimicrobial activity of peptides, including Gram-positive bacteria S. aureus (NCTC 10788), MRSA (NCTC 12493), Enterococcus faecalis (E. faecalis) (NCTC 12697), Gram-negative bacteria E. coli […], Klebsiella pneumoniae (K. pneumoniae) (ATCC 43816), and Pseudomonas aeruginosa (P. aeruginosa) (ATCC 9027). According to the assay described previously, the microorganisms were inoculated at 37 °C overnight and diluted to 5 × 10^5 CFU/mL after reaching the logarithmic growth period. The peptide stock solution at the concentration of 512 × 10^2 μM was prepared and diluted to 100 μM by a 2-fold dilution. One μL of each concentration of peptide solution was incubated with 99 μL of bacterial subculture in the 96-well plate for 18 h at 37 °C. The absorbance was determined at a wavelength of 550 nm using a Synergy HT plate reader (Bio Tek, Washington, DC, USA). […] As for those wells that were clearly visible, 20 μL of the solution was dropped onto the Mueller Hinton agar (MHA) dish and then incubated at 37 °C overnight. The lowest concentration with no colony growth was determined as the MBC.

MRSA (NCTC 12493) [2] = test: microbe, parasite or virus in culture; assay type: cell-based; conditions: MRSA (NCTC 12493)
Excerpt: as §1

S. aureus (NCTC 10788) [3] = test: microbe, parasite or virus in culture; assay type: cell-based; conditions: NCTC 10788, 18 h
Excerpt: as §1

E. coli (ATCC 8739) [4] = assay type: cell-based; conditions: ATCC 8739, 18 h
Excerpt: as §1

[5] = test system: K. pneumoniae (ATCC 43816); assay type: cell-based; conditions: ATCC 43816, 18 h
Excerpt: as §1

[6] = test system: P. aeruginosa (ATCC 9027); assay type: cell-based; conditions: ATCC 9027, 18 h
Excerpt: as §1

S. aureus (NCTC 10788) [7] = assay type: cell-based, Staphylococcus aureus
Protocol: (§2) As a previous study described in detail, the ability of R2AW and its analogues to inhibit and eradicate the formation of biofilm was investigated. The MBIC is the lowest concentration which inhibits the formation of biofilm. The MBEC is the minimum concentration that eradicates biofilm. Six bacterial strains were used, as described above. Briefly, the bacteria were cultured and then diluted to 5 × 10^5 CFU/mL. In MBIC assays, 1 μL of each concentration of R2AW and its analogues (ranging from 512 × 10^2 μM to 100 μM) was mixed with 99 μL of diluted bacterial suspension in a 96-well plate for 16-20 h at 37 °C. As for MBEC assays, 100 μL of cultured bacteria were seeded in a 96-well plate and incubated on the shaking incubator at 37 °C overnight for biofilm formation. Subsequently, each well was rinsed twice with 100 μL sterile PBS to remove planktonic cells, and then replaced with 100 μL of each concentration (ranging from 512 μM to 1 μM) of peptides. After 24 h incubation, the biofilm was washed twice with 100 μL of PBS and fixed with methanol. Next, the same volume of 0.1% crystal violet solution (Sigma-Aldrich, Gillingham, UK) was added to each well to stain the biofilm. After that, 100 μL of 30% of acetic acid (Sigma-Aldrich, Gillingham, UK) was transferred to each well for dissolution. The solutions were transferred into a new 96-well plate and the absorbances of wells was monitored using a Synergy HT plate reader set to 595 nm.

E. coli (ATCC 8739) [8] = assay type: cell-based, Escherichia coli
Protocol: as §2

MRSA (NCTC 12493) [9] = assay type: cell-based, methicillin-resistant Staphylococcus aureus
Protocol: as §2

[10] = test system: K. pneumoniae (ATCC 43816); assay type: cell-based, Klebsiella pneumoniae
Protocol: as §2

E. faecium (NTCC 12697) [11] = assay type: cell-based
Protocol: as §2

[12] = test system: P. aeruginosa (ATCC 9027); assay type: cell-based, Pseudomonas aeruginosa
Protocol: as §2

H838 = assay type: cell-based, human; conditions: 24 h
Protocol: (§3) Five human cancer cell lines of non-small-cell lung cancer H838, human prostate carcinoma PC-3, human neuronal glioblastoma U251MG, human breast cancer cell MCF-7, and colorectal carcinoma HCT116 were used to detect the antiproliferative abilities of R2AW and its five analogues. According to the procedures in a previous article, cells (8000 cells/well) were seeded into the 96-well tissue culture plates and incubated at 37 °C with 5% CO2 overnight. The solutions of R2AW and its analogues at concentrations of 10^−4 M to 10^−9 M were prepared in the serum-free medium. Next, cells in each well were treated with 100 μL of each peptide solution for 24 h. Subsequently, 10 μL of 5 mg/mL MTT (3-(4, 5-Dimethylthiazol-2-yl-)-2, 5-Diphehyltetrazolium Bromide) was added to each well followed by 37 °C incubation for 2 h. After that, the liquid in each well was removed and 100 μL of DMSO was added to dissolve the purple formazan. The plate was placed on a shaking incubator for 10 min, and the absorbance was detected at 550 nm using a Synergy HT plate reader (Biotech, Minneapolis, MN, USA).

HCT116 = assay type: cell-based, human; conditions: 24 h
Protocol: as §3

MCF-7 = assay type: cell-based, human; conditions: 24 h
Protocol: as §3

PC-3 = assay type: cell-based, human; conditions: 24 h
Protocol: as §3

U251MG = assay type: cell-based, human; conditions: 24 h
Protocol: as §3

Haemolysis assay = assay type: cell-based, horse
Protocol: The haemolytic activity of R2AW and its five designed analogues on mammalian erythrocytes was evaluated using 2% defibrinated horse blood (TCS Biosciences Ltd., Buckingham, UK) as per a previous report. Two mL of fresh horse blood was transferred into a 50 mL tube and then washed with sterilised PBS. The supernatant was removed after centrifuging (930× g, 5 min). The centrifugation procedure was repeated until the supernatant was clear. After washing, the red blood cell pellet was diluted with PBS to achieve a 4% (v/v) erythrocyte suspension. The concentrations of R2AW and its designed derivatives were prepared from 512 μM to 2 μM by two-fold dilution in sterilised PBS. One hundred µL of red blood cell suspension was added into a 1.5 mL tube treated with the same volume of each concentration of peptide and incubated at 37 °C for 2 h. The red blood cell suspensions treated with 0.2% Triton X-100 and with PBS were regarded as positive control and negative control. After centrifugation at 930× g for 10 min, 100 μL of suspension was transferred to a 96-well plate, and the absorbance was obtained by use of a Synergy HT plate reader. The degree of haemolysis could be calculated using the following formula: Haemolysis = (absorbance (experimental groups) − absorbance (negative control))/(absorbance (positive control) − absorbance (negative control)) × 100%.

Row | Structure (SMILES) | MBC (E. faecium (NTCC 12697) [1]) | MBC (MRSA (NCTC 12493) [2]) | MIC (MRSA (NCTC 12493) [2]) | MBC (S. aureus (NCTC 10788) [3]) | MIC (S. aureus (NCTC 10788) [3]) | MBC (E. coli (ATCC 8739) [4]) | MIC (E. coli (ATCC 8739) [4]) | MBC [5] | MIC [5] | MBC [6] | MIC [6] | MBEC (S. aureus (NCTC 10788) [7]) | MBIC (S. aureus (NCTC 10788) [7]) | MBEC (E. coli (ATCC 8739) [8]) | MBIC (E. coli (ATCC 8739) [8]) | MBEC [10] | MBIC [10] | MBEC (E. faecium (NTCC 12697) [11]) | MBIC (E. faecium (NTCC 12697) [11]) | MBEC [12] | other results
1 | CC[C@H](C)[C@H](NC(=O)[C@H](CCCCN)NC(=O)[C@H](CO)NC(=O)[C@H](CCCCN)NC(=O)[C@H](CC(C)C)NC(=O)[C@H](CCCCN)NC(=O)[C@H](CC(=O)O)NC(=O)[C@H](CC(C)C)NC(=O)[C@H](CC(C)C)NC(=O)[C@@H](NC(=O)[C@H](C)NC(=O)[C@H](C)NC(=O)[C@@H](NC(=O)[C@H](CC(N)=O)NC(=O)[C@H](CCCCN)NC(=O)[C@H](C)NC(=O)[C@@H](NC(=O)[C@H](CC(N)=O)NC(=O)[C@H](CCCCN)NC(=O)[C@H](C)NC(=O)[C@@H](NC(=O)[C@H](CC(=O)O)NC(=O)[C@H](CCSC)NC(=O)[C@H](Cc1ccccc1)NC(=O)CN)[C@@H](C)O)C(C)C)C(C)C)[C@@H](C)O)C(=O)N[C@H](C(=O)NCC(=O)NCC(=O)N[C@@H](CO)C(=O)O)[C@@H](C)O [[Ser^23,29]R2AW] (H-GFMDTAKNVAKNVAATLLDKLKSKITGGS-OH) | 1526 µg/mL | 1526 µg/mL | 763 µg/mL | 191 µg/mL | 64 µM | 381 µg/mL | 64 µM | 1526 µg/mL | 763 µg/mL | > 1526 µg/mL | 1526 µg/mL | > 512 µM | 128 µM | 512 µM | 128 µM | >512 µM | >512 µM | >512 µM | >512 µM | >512 µM | MBEC (MRSA (NCTC 12493) [9]; MRSA (NCTC 12493)): > 512 µM; MBIC (MRSA (NCTC 12493) [9]; MRSA (NCTC 12493)): 256 µM; MBIC [12]: >512 µM; IC50 (H838): 19.3 µM; IC50 (HCT116): 31.6 µM; IC50 (MCF-7): 62.7 µM; IC50 (PC-3): 17.4 µM; IC50 (U251MG): 37.3 µM; hemolysis at 2 h (Haemolysis assay; horse erythrocytes (washed red blood cell suspension), horse erythrocytes, up to 256 μM): ~10%
2 | CSCC[C@H](NC(=O)[C@H](Cc1ccccc1)NC(=O)CN)C(=O)N[C@@H](CCCCN)C(=O)N[C@H](C(=O)N[C@@H](Cc1c[nH]c2ccccc12)C(=O)N[C@@H](CCCCN)C(=O)N[C@@H](CC(N)=O)C(=O)N[C@H](C(=O)N[C@@H](Cc1c[nH]c2ccccc12)C(=O)N[C@@H](CCCCN)C(=O)N[C@@H](CC(N)=O)C(=O)N[C@H](C(=O)N[C@@H](C)C(=O)N[C@@H](C)C(=O)N[C@H](C(=O)N[C@@H](CC(C)C)C(=O)N[C@@H](CC(C)C)C(=O)N[C@@H](CCCCN)C(=O)N[C@@H](CC(C)C)C(=O)N[C@@H](CC(C)C)C(=O)N[C@@H](CCCCN)C(N)=O)[C@@H](C)O)C(C)C)C(C)C)[C@@H](C)O [[Trp^6,10]R2AW(1-22)-NH2] (H-GFMKTWKNVWKNVAATLLKLLK-NH2; N-terminus assumed) | 41.4 µg/mL | 20.7 µg/mL | 10.4 µg/mL | 20.7 µg/mL | 10.4 µg/mL | 41.4 µg/mL | 20.7 µg/mL | 82.8 µg/mL | 41.4 µg/mL | 166 µg/mL | 82.8 µg/mL | 512 µM | 8 µM | 256 µM | 4 µM | 256 µM | 16 µM | > 512 µM | 8 µM | 512 µM | MIC (E. faecium (NTCC 12697) [1]): 20.7 µg/mL; MBEC (MRSA (NCTC 12493) [9]; NCTC 12493): > 512 µM; MBIC (MRSA (NCTC 12493) [9]; NCTC 12493): 8 µM; MBIC [12]: 32 µM; IC50 (H838): 3.41 µM; IC50 (HCT116): 5.38 µM; IC50 (MCF-7): 5.33 µM; IC50 (PC-3): 1.73 µM; IC50 (U251MG): 3.35 µM; hemolysis at 2 h, 2 µM (Haemolysis assay; horse): ~20%
